We go through 1 molecule from paper PMC7486443, “Generation of Phenothiazine with Potent Anti-TLK1 Activity for Prostate Cancer Therapy” (iScience, 2020).

Some targets named below: ZAP70 (Homo sapiens, UniProt P43403); BMPR1B (Homo sapiens, UniProt O00238); TLK1 (Homo sapiens, UniProt Q9UKI8); MKNK1 (Homo sapiens, UniProt Q9BUB5); RIOK3 (Homo sapiens, UniProt O14730); CIT (Homo sapiens, UniProt O14578); CDK3 (Homo sapiens, UniProt Q00526); ULK2 (Homo sapiens, UniProt Q8IYT8); MUSK (Homo sapiens, UniProt O15146); MERTK (Homo sapiens, UniProt Q12866); SRPK3 (Homo sapiens, UniProt Q9UPE1); TTK (Homo sapiens, UniProt P33981).

What all share (assay): biochemical
Holding throughout (set-up): DiscoverX KINOMEscan scanMAX competition binding panel, single concentration, percent of control; remaining binding: dose or concentration left out as unconfirmed
What all share (conditions): KINOMEscan binding, percent of control; read-out: Table S4_SCANMAX REPORT - related to Fig. 1 / Percent Control

Another assay addresses T1, MST2 (Homo sapiens, UniProt Q13188).
T1 construct: gene STK3

The target of the next assay is T2, DCAMKL3 (Homo sapiens, UniProt Q9C098).
T2 construct: gene DCLK3

The next assay deals with T3, SIK (Homo sapiens, UniProt P57059).
T3 construct: gene SIK1
T3 sequence (P57059 whole entry): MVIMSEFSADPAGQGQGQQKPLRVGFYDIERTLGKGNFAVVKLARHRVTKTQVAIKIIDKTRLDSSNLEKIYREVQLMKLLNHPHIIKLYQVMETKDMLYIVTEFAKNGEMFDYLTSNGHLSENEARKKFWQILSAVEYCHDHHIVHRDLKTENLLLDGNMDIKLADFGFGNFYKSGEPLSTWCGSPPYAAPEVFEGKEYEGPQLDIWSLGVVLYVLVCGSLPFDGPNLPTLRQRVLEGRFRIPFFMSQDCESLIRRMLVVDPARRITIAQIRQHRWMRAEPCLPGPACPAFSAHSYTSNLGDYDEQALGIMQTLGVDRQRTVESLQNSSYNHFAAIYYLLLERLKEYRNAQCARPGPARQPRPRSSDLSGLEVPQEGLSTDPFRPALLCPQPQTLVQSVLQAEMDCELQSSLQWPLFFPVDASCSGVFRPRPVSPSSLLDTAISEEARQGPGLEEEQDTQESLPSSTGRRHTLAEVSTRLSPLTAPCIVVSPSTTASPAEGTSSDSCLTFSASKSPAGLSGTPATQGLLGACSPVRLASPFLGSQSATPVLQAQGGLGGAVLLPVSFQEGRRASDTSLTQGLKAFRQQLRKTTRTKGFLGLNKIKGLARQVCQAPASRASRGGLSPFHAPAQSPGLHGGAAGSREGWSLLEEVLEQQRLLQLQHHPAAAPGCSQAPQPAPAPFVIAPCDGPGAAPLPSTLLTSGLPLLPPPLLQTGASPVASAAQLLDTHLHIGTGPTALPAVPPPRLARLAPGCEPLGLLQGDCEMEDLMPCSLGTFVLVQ

The target of assay [1] is T4, ABL1(F317L)-phosphorylated (Homo sapiens, UniProt P00519, F317L).
T4 construct: phosphorylated

The target of assay [2] is T5, RSK4(Kin.Dom.1-N-terminal) (Homo sapiens, UniProt Q9UK32).
T5 construct: gene RPS6KA6; Kin.Dom.1-N-terminal

Another assay has as its target T6, CTK (Homo sapiens, UniProt P42679).
T6 construct: gene MATK

T1 sequence (Q13188 whole entry): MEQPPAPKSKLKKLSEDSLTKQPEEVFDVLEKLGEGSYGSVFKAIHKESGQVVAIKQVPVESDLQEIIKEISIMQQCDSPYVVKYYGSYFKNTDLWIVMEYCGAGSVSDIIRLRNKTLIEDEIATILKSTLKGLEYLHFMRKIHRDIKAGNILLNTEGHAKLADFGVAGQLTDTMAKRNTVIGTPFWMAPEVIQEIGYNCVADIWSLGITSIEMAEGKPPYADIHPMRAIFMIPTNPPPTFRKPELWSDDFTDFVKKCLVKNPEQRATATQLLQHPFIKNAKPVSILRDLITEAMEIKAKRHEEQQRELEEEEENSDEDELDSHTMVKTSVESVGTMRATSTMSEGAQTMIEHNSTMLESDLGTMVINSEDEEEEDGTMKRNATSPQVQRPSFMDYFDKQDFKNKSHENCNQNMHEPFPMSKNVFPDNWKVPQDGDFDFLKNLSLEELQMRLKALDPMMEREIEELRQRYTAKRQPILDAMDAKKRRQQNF
Chain of MUSK (O15146 whole entry): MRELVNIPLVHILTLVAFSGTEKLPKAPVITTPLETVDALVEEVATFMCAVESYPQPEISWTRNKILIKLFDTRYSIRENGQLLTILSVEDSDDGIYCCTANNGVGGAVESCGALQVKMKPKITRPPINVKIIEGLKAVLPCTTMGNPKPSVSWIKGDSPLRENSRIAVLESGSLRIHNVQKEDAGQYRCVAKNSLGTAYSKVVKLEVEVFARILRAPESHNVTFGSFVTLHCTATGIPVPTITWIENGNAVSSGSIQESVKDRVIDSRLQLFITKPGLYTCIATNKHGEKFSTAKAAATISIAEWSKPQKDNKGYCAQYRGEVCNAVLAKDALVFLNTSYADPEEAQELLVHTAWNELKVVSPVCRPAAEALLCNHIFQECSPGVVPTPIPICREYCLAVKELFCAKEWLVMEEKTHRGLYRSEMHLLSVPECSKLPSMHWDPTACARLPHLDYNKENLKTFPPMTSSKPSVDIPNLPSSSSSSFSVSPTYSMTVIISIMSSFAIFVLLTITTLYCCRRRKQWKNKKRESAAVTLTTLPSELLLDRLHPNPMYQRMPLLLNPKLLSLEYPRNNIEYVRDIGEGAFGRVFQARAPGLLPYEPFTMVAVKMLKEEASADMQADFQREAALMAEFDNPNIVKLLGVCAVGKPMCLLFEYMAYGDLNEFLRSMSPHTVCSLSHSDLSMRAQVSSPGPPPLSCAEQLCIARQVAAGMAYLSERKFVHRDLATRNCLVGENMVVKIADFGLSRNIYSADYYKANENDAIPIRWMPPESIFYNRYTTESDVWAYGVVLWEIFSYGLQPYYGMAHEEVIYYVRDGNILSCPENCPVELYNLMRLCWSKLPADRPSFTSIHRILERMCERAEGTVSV
Chain of MERTK (Q12866 whole entry): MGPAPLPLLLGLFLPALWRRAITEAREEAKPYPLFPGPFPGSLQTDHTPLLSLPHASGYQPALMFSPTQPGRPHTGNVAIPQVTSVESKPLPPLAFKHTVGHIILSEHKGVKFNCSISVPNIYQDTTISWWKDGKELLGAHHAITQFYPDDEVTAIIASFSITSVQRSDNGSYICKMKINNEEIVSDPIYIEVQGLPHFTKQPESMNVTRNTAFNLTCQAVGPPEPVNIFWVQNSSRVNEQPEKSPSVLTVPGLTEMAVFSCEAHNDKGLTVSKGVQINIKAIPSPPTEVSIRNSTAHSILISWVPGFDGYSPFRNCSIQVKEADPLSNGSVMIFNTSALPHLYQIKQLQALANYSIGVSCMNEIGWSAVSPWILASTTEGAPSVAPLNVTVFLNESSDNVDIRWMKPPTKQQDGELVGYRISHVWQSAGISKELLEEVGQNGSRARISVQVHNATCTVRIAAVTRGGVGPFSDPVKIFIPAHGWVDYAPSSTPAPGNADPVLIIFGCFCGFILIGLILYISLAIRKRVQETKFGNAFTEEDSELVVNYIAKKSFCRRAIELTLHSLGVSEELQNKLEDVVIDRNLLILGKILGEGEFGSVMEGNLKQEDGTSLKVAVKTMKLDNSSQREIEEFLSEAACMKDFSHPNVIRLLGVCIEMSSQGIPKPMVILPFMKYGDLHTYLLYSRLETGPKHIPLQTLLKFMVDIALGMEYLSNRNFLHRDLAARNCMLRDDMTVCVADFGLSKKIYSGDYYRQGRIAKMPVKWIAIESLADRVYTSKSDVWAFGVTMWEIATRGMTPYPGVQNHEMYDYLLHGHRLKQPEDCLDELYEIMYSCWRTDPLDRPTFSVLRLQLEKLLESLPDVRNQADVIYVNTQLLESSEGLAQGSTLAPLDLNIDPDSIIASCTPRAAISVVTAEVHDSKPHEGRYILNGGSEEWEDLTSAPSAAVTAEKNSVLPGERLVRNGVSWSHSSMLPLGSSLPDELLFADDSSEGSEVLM
Chain of MKNK1 (Q9BUB5 whole entry): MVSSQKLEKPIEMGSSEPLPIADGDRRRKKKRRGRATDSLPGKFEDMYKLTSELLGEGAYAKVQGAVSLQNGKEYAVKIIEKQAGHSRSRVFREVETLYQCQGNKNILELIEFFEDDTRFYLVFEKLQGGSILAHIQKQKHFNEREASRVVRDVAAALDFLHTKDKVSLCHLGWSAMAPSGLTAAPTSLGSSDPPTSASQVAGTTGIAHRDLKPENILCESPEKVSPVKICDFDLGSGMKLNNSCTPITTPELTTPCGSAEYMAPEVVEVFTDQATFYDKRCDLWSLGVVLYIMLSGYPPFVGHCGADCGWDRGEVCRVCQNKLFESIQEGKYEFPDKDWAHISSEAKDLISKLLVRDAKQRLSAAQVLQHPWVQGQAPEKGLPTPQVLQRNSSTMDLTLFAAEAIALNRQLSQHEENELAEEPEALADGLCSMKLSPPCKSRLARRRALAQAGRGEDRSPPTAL
Chain of ULK2 (Q8IYT8 whole entry): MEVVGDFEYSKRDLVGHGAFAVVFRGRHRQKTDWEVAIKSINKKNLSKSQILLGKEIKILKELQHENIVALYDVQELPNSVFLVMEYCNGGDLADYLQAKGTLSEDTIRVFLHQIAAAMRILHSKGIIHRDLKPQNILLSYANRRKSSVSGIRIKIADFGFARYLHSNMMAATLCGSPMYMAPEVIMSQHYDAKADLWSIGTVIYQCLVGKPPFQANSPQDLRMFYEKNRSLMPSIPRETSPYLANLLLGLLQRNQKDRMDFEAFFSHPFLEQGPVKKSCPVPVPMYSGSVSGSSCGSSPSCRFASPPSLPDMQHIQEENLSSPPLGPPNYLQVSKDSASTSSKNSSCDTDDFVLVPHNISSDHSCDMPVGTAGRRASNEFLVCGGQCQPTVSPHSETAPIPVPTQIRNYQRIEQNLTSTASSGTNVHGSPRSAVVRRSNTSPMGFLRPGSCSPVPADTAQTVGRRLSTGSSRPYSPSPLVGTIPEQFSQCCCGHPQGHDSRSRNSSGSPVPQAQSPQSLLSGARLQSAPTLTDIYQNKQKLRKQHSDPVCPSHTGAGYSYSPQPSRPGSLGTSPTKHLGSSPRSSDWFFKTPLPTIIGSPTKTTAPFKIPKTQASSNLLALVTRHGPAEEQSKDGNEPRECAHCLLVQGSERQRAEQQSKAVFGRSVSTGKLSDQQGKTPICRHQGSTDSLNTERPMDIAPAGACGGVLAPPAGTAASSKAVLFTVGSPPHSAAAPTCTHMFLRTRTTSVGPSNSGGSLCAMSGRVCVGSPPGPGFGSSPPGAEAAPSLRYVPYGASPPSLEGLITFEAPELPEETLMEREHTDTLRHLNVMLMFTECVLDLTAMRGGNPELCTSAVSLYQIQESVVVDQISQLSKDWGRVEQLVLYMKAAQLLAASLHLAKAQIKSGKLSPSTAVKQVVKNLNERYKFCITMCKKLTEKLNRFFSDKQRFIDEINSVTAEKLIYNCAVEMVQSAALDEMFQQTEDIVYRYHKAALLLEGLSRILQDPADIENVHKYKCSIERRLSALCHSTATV
Chain of CDK3 (Q00526 whole entry): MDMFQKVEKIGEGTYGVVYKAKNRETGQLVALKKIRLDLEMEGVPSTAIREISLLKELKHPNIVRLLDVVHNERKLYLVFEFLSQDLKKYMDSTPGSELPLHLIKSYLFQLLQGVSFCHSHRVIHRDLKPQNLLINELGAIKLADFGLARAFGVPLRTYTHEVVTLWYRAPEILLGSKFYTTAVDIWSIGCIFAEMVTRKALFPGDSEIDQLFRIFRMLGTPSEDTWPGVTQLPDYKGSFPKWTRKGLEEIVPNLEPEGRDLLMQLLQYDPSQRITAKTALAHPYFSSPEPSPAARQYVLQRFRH

As for `c1ccc2c(c1)Sc1ccccc1N2CCN1CCOCC1` [J54], the remaining binding on ZAP70 is 100%; on MST2, 100%; on DCAMKL3, 95%; at BMPR1B, 93%; at TLK1 it was 16%; on MKNK1, 92%. Also, the remaining binding stood at 91% at SIK; 72% on RIOK3; 99% in assay [1]; 88% at CIT; 89% at CDK3; 100% in assay [2]. Further, the remaining binding amounted to 100% at ULK2; 100% at MUSK; 100% at MERTK; 95% at CTK; 100% on SRPK3; 17% on TTK.
